The species entered for series [1] is Homo sapiens. Briefly: Selectivity index, ratio of IC50 for human MAO-A to IC50 for human MAO-B.
The target in series [2] is T1, Amine oxidase [flavin-containing] B (Homo sapiens, UniProt P27338).
T1 sequence (P27338 whole entry): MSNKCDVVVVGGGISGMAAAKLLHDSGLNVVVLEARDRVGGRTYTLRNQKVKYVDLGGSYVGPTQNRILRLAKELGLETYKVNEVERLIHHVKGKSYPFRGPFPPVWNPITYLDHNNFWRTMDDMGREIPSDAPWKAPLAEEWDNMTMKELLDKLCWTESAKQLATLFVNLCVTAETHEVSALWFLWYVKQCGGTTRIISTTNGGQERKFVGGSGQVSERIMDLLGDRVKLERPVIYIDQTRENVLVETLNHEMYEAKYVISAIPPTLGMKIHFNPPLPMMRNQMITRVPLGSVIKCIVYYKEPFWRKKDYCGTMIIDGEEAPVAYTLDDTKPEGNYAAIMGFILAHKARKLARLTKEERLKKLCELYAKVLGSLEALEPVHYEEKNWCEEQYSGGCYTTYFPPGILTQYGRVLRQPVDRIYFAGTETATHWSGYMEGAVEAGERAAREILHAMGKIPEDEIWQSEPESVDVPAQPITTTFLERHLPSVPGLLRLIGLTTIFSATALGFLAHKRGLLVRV
Briefly: Inhibition of human MAO-B using benzylamine as substrate.

The target in series [3] is T2, Amine oxidase [flavin-containing] A (Homo sapiens, UniProt P21397).
T2 sequence (P21397 whole entry): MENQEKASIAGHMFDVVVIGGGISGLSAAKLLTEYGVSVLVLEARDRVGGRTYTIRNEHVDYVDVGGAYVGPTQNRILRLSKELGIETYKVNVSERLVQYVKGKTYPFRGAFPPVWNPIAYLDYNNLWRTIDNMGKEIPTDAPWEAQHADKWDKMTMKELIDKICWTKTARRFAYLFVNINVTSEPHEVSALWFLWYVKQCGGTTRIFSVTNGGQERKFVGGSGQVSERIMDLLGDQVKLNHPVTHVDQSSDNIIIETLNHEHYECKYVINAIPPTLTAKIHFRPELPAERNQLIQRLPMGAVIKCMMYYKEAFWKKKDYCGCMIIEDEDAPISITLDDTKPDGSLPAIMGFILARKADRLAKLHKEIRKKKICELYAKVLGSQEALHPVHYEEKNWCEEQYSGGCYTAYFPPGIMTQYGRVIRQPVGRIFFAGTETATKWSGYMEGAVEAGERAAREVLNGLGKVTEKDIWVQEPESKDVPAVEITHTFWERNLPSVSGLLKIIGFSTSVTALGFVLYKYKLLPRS
Briefly: Inhibition of human MAO-A using kynuramine as substrate incubated for 10 mins by continuous spectrophotometric method.

For series [4], the target named is T1, Amine oxidase [flavin-containing] B. Briefly: Inhibition of human MAO-B using p-tyramine as substrate by fluorimetric based assay.
For series [5] the target is unchanged. Briefly: Binding affinity to human MAO-B using p-tyramine as substrate incubated for 15 mins by amplex red dye based microplate assay.
Series [6] has as its target T2, Amine oxidase [flavin-containing] A. Briefly: Inhibition of human MAO-A using kynuramine as substrate incubated for 20 mins by fluorescence based assay relative to control.
The target in series [7] is T1, Amine oxidase [flavin-containing] B. Description: Inhibition of human MAO-B using kynuramine as substrate incubated for 20 mins by fluorescence based assay relative to control.
Series [8] is filed under the species Homo sapiens. Briefly: Selectivity index, ratio of IC50 for human MAO-A to IC50 for human MAO-B by fluorescence based assay.
In series [9] the target is T1, Amine oxidase [flavin-containing] B. Description: Inhibition of human MAO-B.
Series [10] shares this target. Briefly: Binding affinity to human MAO-B using kynuramine as substrate incubated for 30 mins by absorbance based assay.
The target is the same in series [11]. Description: Inhibition of human MAO-B using kynuramine as substrate incubated for 30 mins by fluorescence based assay. To be noted: 0.5 h.

Where only a bound is given, the exact number is not on record here.

In the case of `CC/C(C)=N/Oc1ccc(C(=O)/C=C/c2ccccc2)cc1`, the Ratio IC50 in the series listed under Homo sapiens [1] was > 120. Further, the figures for the IC50 in [2] and in series [3] were 86 nM and > 10000 nM, respectively. Molecule `COc1cc2c(Nc3ccc(C(=O)/C=C/c4nc(C)c(C)nc4C)cc3)ncnc2c(OC)c1OC` came in with an IC50 in series [4] of 2600 nM. This counts as single-digit micromolar. For `O=C(/C=C/c1csc2ccccc12)c1ccco1`, in series [5], the Ki turned out to be 72 nM. In addition, the Ratio IC50 in the series listed under Homo sapiens [1] turned out to be 12.6. In the case of `CC(C)=CCC/C(C)=C/Cc1c(O)ccc(C(=O)/C=C/c2ccc(O)cc2)c1O` [XANTHOANGELOL], the IC50 in series [6] is > 40000 nM; in series [7], 13200 nM. Moreover, the Ratio IC50 in the series filed under Homo sapiens [8] was > 3.03. The molecule `O=C(/C=C/c1ccc(Br)cc1)c1c[nH]c2ccccc12` registered an inhibition constant (Ki) in series [5] of 10 nM. For the same molecule, the Ratio IC50 in the series listed under Homo sapiens [1] stood at 120. On to `COc1ccc(C(=O)/C=C/c2ccc(O)cc2)c(O)c1CC=C(C)C`, for which the values for the IC50 in series [6] and in series [7] were > 40000 nM and 1390 nM, respectively. The Ratio IC50 in the series filed under Homo sapiens [8] was > 28.8. As to `COc1cc(O)c(C(=O)/C=C/c2ccccc2O)c(OC)c1`, the IC50 in series [6] is 390 nM; in series [7], 2710 nM. For the same molecule, the Ratio IC50 in the series listed under Homo sapiens [8] came to 0.14. On to `O=C(/C=C/C=C/c1ccccc1)c1ccco1`, for which the affinity in [5] corresponds to a Ki of 4.1 nM. For the same molecule, in the series filed under Homo sapiens [1], the Ratio IC50 is 172. As to `O=C(/C=C/c1cccc2c1OCO2)c1ccc(Br)cc1`, the IC50 in [9] is < 100 nM. `O=C(/C=C/c1ccc(O)c(O)c1O)c1ccco1`: the inhibitory constant (Ki) in series [10] is 3550 nM. In other words, the single-digit micromolar range.

For `COc1ccc(/C=C/C(=O)c2ccc(Cl)cc2)cc1`, the “inhibition (INH)” value in series [11] is listed as < 75%. In the case of `CC(C)=CCc1cc(C(=O)/C=C/c2ccc(O)c(O)c2)c(O)cc1O` [BROUSSOCHALCONE A], the IC50 was 720 nM in series [6] and 7020 nM in series [7]. Moreover, in the series filed under Homo sapiens [8], the Ratio IC50 is 0.1.

The molecule `COC(=O)c1ccc(/C=C/C(=O)c2ccco2)cc1` returned a Ki in series [10] of 300 nM. `COc1ccc(C(=O)/C=C/c2ccc(N(C)C)cc2)cc1`: the “inhibition (INH)” value in series [11] is < 75%.

For the molecule `O=C(/C=C/c1ccc(Cl)cc1Cl)c1ccco1`, the affinity in [10] corresponds to a Ki of 850 nM. This counts as sub-micromolar. Consider `COc1cc(O)ccc1C(=O)/C=C/c1ccc(O)cc1`, for which the IC50 in series [6] came out at 10100 nM; in series [7], 380 nM. In the series listed under Homo sapiens [8], the Ratio IC50 came to 9.9.

Usually IC50 stands for the concentration that gives 50% inhibition. Read a low IC50 as higher potency. Usually Ki stands for the equilibrium dissociation constant of an inhibitor or competing ligand from its target.
